The target in this assay is Mu-type opioid receptor (Homo sapiens) (UniProt P35372). The experiment in a line: activators of OPRM1-OPRD1 heterodimerization, late-stage follow-up, cell-based, luminescence, dose response (AID 651685). The conditions noted are these: cells, luminescence complementation.

This is an account of results in PubChem BioAssay AID651685 (The Scripps Research Institute Molecular Screening Center, 2012).

The EC50 is the concentration giving half of the maximal effect.

The source made the active and inactive calls. The rule behind the calls is not given here. Bounds are passed on as bounds.

Sequence of Mu-type opioid receptor (Homo sapiens) (P35372 whole entry, looked up): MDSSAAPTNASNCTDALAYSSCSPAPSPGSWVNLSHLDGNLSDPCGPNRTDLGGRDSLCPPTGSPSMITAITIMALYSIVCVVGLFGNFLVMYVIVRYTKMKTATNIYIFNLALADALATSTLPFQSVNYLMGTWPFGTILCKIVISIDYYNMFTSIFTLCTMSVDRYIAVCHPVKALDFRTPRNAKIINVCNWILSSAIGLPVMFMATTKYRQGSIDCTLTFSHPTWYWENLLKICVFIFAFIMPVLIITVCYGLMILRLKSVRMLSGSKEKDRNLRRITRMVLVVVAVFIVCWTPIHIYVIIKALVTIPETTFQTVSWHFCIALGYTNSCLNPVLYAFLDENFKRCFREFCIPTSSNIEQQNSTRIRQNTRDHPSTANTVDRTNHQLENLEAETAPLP

With `CCOC(=O)C1(CCc2ccccc2)CCN(Cc2ccc(NC(C)=O)cc2)CC1`, the concentration for a half-maximal effect (EC50) was 0.403 µM. Turning to `CCOC(=O)C1(CCOc2ccccc2)CCN(Cc2cccn2-c2cccnc2)CC1`, the EC50 was 4.4 µM. For the molecule `CCOC(=O)C1(Cc2ccccc2)CCN(Cc2cccn2-c2nccs2)CC1`, the EC50 is > 40 µM (inactive). Consider `CCOC(=O)C1(CCCc2ccccc2)CCN(Cc2cnn(C)c2)CC1`, for which the EC50 was 8.9 µM. Turning to `CCOC(=O)C1(CCc2ccccc2)CCN(Cc2ccccc2C)CC1`, the EC50 was 7 µM.

On to `CCOC(=O)C1(CCc2ccccc2)CCN(Cc2ccc(OC(C)C)c(C#N)c2)CC1`, for which the EC50 is > 40 µM (inactive).

As to `CCOC(=O)C1(CCOc2ccccc2)CCN(Cc2ccc(O)c(OC)c2)CC1`, the EC50 entry is “inactive”. On to `OCC1(CCc2ccccc2)CCN(Cc2cc(F)ccc2-n2cccn2)CC1`, for which the EC50 is > 40 µM (inactive). For `CCOC(=O)C1(Cc2ccccc2)CCN(Cc2cccn2-c2cccnc2)CC1`, the EC50 was > 40 µM (inactive). As to `CCOC(=O)C1(CCc2ccccc2)CCN(Cc2cc(C)cc(C)c2)CC1`, the EC50 was > 40 µM (inactive).

In the case of `CCOC(=O)C1(CC2CCCCO2)CCN(Cc2c(C)cc(C)cc2-n2cccn2)CC1` (stereo unspecified), the EC50 is 0.901 µM.
